Measured values as given in patent US6545053B1, “Tricyclic compounds and drug compositions containing same” (Asahi Kasei Kogyo Kabushiki Kaisha, priority 1996, dated 2003).
Where a name gives a salt, the structure may show the parent alone. Read-outs that look alike come from different tables or passages of the source.

Biological target: T1, human β3 (Homo sapiens, UniProt P13945)
T1 construct: And then full length of human β3 gene was cloned using this fragment as a probe; expressed in transfected cells; host or cells: CHO cells (Chinese hamster ovary), pcDNA3 vector
Assay: Human β3-agonist activity (cAMP in CHO cells transfected with human β3 gene)
Format: cell-based
Settings: for Emax: CHO, read-out: Intrinsic activity (%)
Description: Human β3-agonist Activity
Human β3-agonist activity was examined using CHO cells (chinese hamster ovarian cells) to which pcDNA3 (in vitrogen) cells inserted human β3 gene was transfected. Human β3 fragment was obtained by PCR using human fat tissue cDNA (supplied from Clontech) with a β3 primer [Krief et al, J. Clin. Invest.
The cells were cultured in a HAM F-12 medium containing 10% of fetal bovine serum, 400 μg/ml of Geneticin (Gibco BRL). 100 U/ml penicillin and 100 μg/ml streptomycin. 5×10^5 cells were placed on a 6-well plate and cultured for 24 hours, after which the medium was changed to a HAM F-12 medium without serum and was kept for 2 hours. Each test compound was first dissolved in DMSO, and then diluted with a HAM F-12 medium containing 1 mM isobutylmethyl xanthine and 1 mM ascorbic acid. A 10-fold dilution in the range of 10^−5 to 10^−12 M was added into the cell.
After culturing for 30 minutes, culture medium was withdrawn, 0.5 ml of 1 N NaOH was added and was kept for 20 minutes. And then 0.5 ml of 1 N acetic acid was added with subsequent agitation and centrifugation. Finally the concentration of cAMP were analyzed using cAMP EIA KIT (Cayman). […] Isoprotelenol was purchased from Research Biochimicals International.

[1] = cAMP, CHO cells with human β3, read-out: ED50 (the source's name)

T1 sequence (P13945 whole entry, the tested form may be a part): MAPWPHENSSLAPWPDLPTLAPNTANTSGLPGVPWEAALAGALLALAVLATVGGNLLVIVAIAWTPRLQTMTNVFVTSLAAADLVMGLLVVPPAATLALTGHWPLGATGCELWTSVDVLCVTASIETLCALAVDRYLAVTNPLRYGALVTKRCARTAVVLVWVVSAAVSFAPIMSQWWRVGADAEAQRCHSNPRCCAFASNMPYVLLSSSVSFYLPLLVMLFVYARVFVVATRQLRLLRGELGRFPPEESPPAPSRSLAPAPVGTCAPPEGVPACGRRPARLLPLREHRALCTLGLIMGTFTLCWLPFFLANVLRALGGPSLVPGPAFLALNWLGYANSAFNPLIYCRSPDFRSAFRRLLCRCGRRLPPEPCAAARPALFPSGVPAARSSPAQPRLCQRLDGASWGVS

Compound	EC50	Emax	EC50 [1]	Intrinsic activity (%) (relative activity for isoproterenol, cAMP, CHO cells with human β3)
CS(=O)(=O)Nc1cc(C(O)CNCCOc2ccc3c(c2)[nH]c2ccccc23)ccc1OCc1ccccc1 (racemic) [Example 1, (±)-N-[5-[2-[2-(9H-Carbazol-2-yloxy)ethylamino]-1-hydroxyethyl]-2-benzyloxyphenyl]methanesulfonamide Hydrochloride]	340 nM	80%	–	–
CS(=O)(=O)Nc1cc(C(O)CNCCOc2ccc3c(c2)[nH]c2ccccc23)ccc1F (racemic) [Example 5, (±)-N-[5-[2-[2-(9H-Carbazol-2-yloxy)ethylamino]-1-hydroxyethyl]-2-fluorophenyl]methanesulfonamide Hydrochloride]	66 nM	114%	–	–
CS(=O)(=O)Nc1cc(C(O)CNCCOc2ccc3c(c2)[nH]c2ccccc23)ccc1Cl (racemic) [Example 6, (±)-N-[5-[2-[2-(9H-Carbazol-2-yloxy)ethylamino]-1-hydroxyethyl]-2-chlorophenyl]methanesulfonamide Hydrochloride]	33 nM	119%	–	–
O=S(=O)(Cc1ccccc1)Nc1cccc(C(O)CNCCOc2ccc3c(c2)[nH]c2ccccc23)c1 (racemic) [Example 8, (±)-N-[3-[2-[2-(9H-Carbazol-2-yloxy)ethylamino]-1-hydroxyethyl]phenyl]phenylmethanesulfonamide Hydrochloride]	720 nM	47%	–	–
CC(=O)Nc1ccc2c(c1)Cc1cc(OCCNCC(O)c3cccc(NS(C)(=O)=O)c3)ccc1-2 (racemic) [Example 10, (±)-N-[3-[2-[2-(9H-7-Acetylaminofluoren-2-yloxy)ethylamino]-1-hydroxyethyl]phenyl]methanesulfonamide Hydrochloride]	–	47%	150 nM	–
CC(COc1ccc2c(c1)[nH]c1ccccc12)NCC(O)c1cccc(NS(C)(=O)=O)c1 (racemic) [Example 11, (±)-N-[3-[2-[[1-(9H-Carbazol-2-yloxy)propan-2R-yl]amino]-1-hydroxyethyl]phenyl]methanesulfonamide Hydrochloride]	–	95%	26 nM	–
CNS(=O)(=O)c1cccc(C(O)CNCCOc2ccc3c(c2)[nH]c2ccccc23)c1 (racemic) [Example 16, (±)-N-methyl-3-[2-[2-(9H-Carbazol-2-yloxy)ethylamino]-1-hydroxyethyl]benzenesulfonamide Hydrochloride]	30 nM	99%	–	–
O=CNc1cccc(C(O)CNCCOc2ccc3c(c2)[nH]c2ccccc23)c1 (racemic) [Example 17, (±)-N-[3-[2-[2-(9H-Carbazol-2-yloxy)ethylamino]-1-hydroxyethyl]phenyl]formamide Hydrochloride]	910 nM	53%	–	–
O=[N+]([O-])c1cc(C(O)CNCCOc2ccc3c(c2)[nH]c2ccccc23)ccc1O (racemic) [Example 18, (±)-2-[N-[2-(9H-Carbazol-2-yloxy)ethyl]amino]-1-(4-hydroxy-3-nitrophenyl)]ethanol Hydrochloride]	–	90%	32 nM	–
OC(CNCCOc1ccc2c(c1)[nH]c1ccccc12)c1ccccc1F (racemic) [Example 28, (±)-2-[N-[2-(9H-Carbazol-2-yloxy)ethyl]amino]-1-(2-fluorophenyl)ethanol Hydrochloride]	1000 nM	97%	–	–
Oc1ccc(C(O)CNCCOc2ccc3c(c2)[nH]c2ccccc23)cc1 (racemic) [Example 29, (±)-2-[N-[2-(9H-Carbazol-2-yloxy)ethyl]amino]-1-(4-hydroxyphenyl)ethanol Hydrochloride]	250 nM	120%	–	–
OC(CNCCOc1ccc2oc3ccccc3c2c1)c1ccccc1 (racemic) [Example 34, (±)-2-[N-[2-(Dibenzofuran-2-yloxy)ethyl]amino]-1-phenyl ethanol Hydrochloride]	4600 nM	37%	–	–
CC(=O)Nc1ccc2c(c1)Cc1cc(OCCNCC(O)c3ccc(O)c(NS(=O)(=O)N(C)C)c3)ccc1-2 (racemic) [Example 45, (±)-N′-[5-[2-[2-(9H-7-Acetylaminofluoren-2-yloxy)ethylamino]-1-hydroxyethyl]-2-hydroxyphenyl]-N,N-dimethylsulfamide Hydrochloride]	–	89%	17 nM	–
Nc1cccc(C(O)CNCCOc2ccc3c(c2)[nH]c2ccccc23)c1 (racemic) [Example 47, (±)2-[N-[2-(9H-Carbazol-2-yloxy)ethyl]amino]-1-(3-aminophenyl)]ethanol Hydrochloride]	–	86%	2000 nM	–
CN(C)S(=O)(=O)Nc1cccc(C(O)CNCCOc2ccc3c(c2)[nH]c2ccccc23)c1 (racemic) [Example 48, (±)-N′-[3-[2-[2-(9H-Carbazol-2-yloxy)ethylamino]-1-hydroxyethyl]phenyl]-N,N-dimethylsulfamide Hydrochloride]	220 nM	73%	–	–
CS(=O)(=O)Nc1cc(C(O)CNCCOc2ccc3c(c2)oc2ccccc23)ccc1F (racemic) [Example 55, (±)-N-[5-[2-[2-(Dibenzofuran-3-yloxy)ethylamino]-1-hydroxyethyl]2-fluorophenyl]methanesulfonamide Hydrochloride]	230 nM	76%	–	–
CS(=O)(=O)Nc1cc(C(O)CNCCOc2ccc3c(c2)sc2ccccc23)ccc1F (racemic) [Example 56, (±)-N-[5-[2-[2-(Dibenzothiophen-3-yloxy)ethylamino]-1-hydroxyethyl]-2-fluorophenyl]methanesulfonamide Hydrochloride]	630 nM	97%	–	–
CS(=O)(=O)Nc1cc(C(O)CNCCOc2ccc3c(c2)oc2ccccc23)ccc1Cl (racemic) [Example 57, (±)-N-[5-[2-[2-(Dibenzofuran-3-yloxy)ethylamino]-1-hydroxyethyl]-2-chlorophenyl]methanesulfonamide Hydrochloride]	230 nM	68%	–	–
CS(=O)(=O)Nc1cc(C(O)CNCCOc2ccc3c(c2)sc2ccccc23)ccc1Cl (racemic) [Example 58, (±)-N-[5-[2-[2-(Dibenzothiophen-3-yloxy)ethylamino]-1-hydroxyethyl]-2-chlorophenyl]methanesulfonamide Hydrochloride]	550 nM	91%	–	–
CS(=O)(=O)Nc1cc(O)cc(C(O)CNCCOc2ccc3c(c2)[nH]c2ccccc23)c1 (racemic) [Example 62, (±)-N-[5-[2-[2-(9H-Carbazol-2-yloxy)ethylamino]-1-hydroxyethyl]-3-hydroxyphenyl]methanesulfonamide Hydrochloride]	210 nM	106%	–	–
CNS(=O)(=O)c1cc(C(O)CNCCOc2ccc3c(c2)[nH]c2ccccc23)ccc1O (racemic) [Example 66, (±)-N-methyl-[5-[2-[2-(9H-Carbazol-2-yloxy)ethylamino]-1-hydroxyethyl]-2-hydroxy]benzenesulfonamide Hydrochloride]	–	106%	72 nM	–
CC(=O)Nc1ccc2[nH]c3cc(OCCNCC(O)c4cccc(NS(C)(=O)=O)c4)ccc3c2c1.Cl (racemic) [Example 68, (±)-N-[3-[2-[2-(9H-6-(Acetylamino)carbazol-2-yloxy]ethylamino]-1-hydroxyethyl]phenyl]methanesulfonamide Hydrochloride]	–	–	38 nM	92%
